Values quoted from earlier work, collected in US8350059B2, “Intermediates and methods for making zearalenone macrolide analogs” (Eisai R&D Management Co., Ltd., priority 2007, dated 2013).

Tested on: Map/Erk kinase (MEK)
Conditions: background statement

## COc1cc(O)c2c(c1)/C=C/C[C@H](O)[C@H](O)C(=O)/C=C\C[C@H](C)OC2=O [F152]
  inhibition of the phosphorylating enzyme Map/Erk kinase (MEK): inhibit the phosphorylating enzyme Map/Erk kinase (MEK)
